# Molecular target: Carbonic anhydrase 2 (Homo sapiens, UniProt P00918)
row,Ki [nM],Structure (SMILES)
1,53,NS(=O)(=O)c1ccc(CCNC(=O)Cc2cccs2)cc1
2,107,NS(=O)(=O)c1ccc(NC(=O)Cc2ccccc2)cc1
3,50,NS(=O)(=O)c1ccc(NC(=O)Cc2cccs2)cc1

row,Structure (SMILES),Ki [nM]
1,NS(=O)(=O)c1ccc(CNC(=O)Cc2cccs2)cc1,52

# Molecular target: Carbonic anhydrase 7 (Homo sapiens, UniProt P43166)
# Sequence (P43166 whole entry): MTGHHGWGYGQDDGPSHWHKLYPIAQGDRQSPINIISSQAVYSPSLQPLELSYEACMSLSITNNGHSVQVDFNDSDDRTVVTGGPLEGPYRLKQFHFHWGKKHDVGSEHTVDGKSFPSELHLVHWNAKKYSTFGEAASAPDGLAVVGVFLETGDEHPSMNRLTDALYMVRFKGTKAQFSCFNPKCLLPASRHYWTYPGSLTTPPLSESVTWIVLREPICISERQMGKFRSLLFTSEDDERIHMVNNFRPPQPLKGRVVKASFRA
row,Ki [nM],Structure (SMILES)
1,7.6,NS(=O)(=O)c1ccc(CCNC(=O)Cc2cccs2)cc1
2,4.7,NS(=O)(=O)c1ccc(NC(=O)Cc2ccccc2)cc1
3,6.2,NS(=O)(=O)c1ccc(NC(=O)Cc2cccs2)cc1

row,Structure (SMILES),Ki [nM]
1,NS(=O)(=O)c1ccc(CNC(=O)Cc2cccs2)cc1,7.1

# Molecular target: Carbonic anhydrase 1 (Homo sapiens, UniProt P00915)
# Sequence (P00915 whole entry): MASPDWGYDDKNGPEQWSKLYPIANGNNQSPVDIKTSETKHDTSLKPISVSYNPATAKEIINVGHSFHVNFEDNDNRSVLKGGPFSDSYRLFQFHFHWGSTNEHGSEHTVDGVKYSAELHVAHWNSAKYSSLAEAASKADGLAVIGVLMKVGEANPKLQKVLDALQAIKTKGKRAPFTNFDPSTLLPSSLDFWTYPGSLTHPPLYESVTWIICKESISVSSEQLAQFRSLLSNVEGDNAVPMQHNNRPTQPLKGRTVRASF
row,Ki [nM],Structure (SMILES)
1,68,NS(=O)(=O)c1ccc(CCNC(=O)Cc2cccs2)cc1
2,108,NS(=O)(=O)c1ccc(NC(=O)Cc2ccccc2)cc1
3,61,NS(=O)(=O)c1ccc(NC(=O)Cc2cccs2)cc1

row,Structure (SMILES),Ki [nM]
1,NS(=O)(=O)c1ccc(CNC(=O)Cc2cccs2)cc1,60
